Assay results published in patent US10294202B2, “Pyrrolidinones as herbicides” (FMC Corporation, priority 2013, dated 2019).

How the values were obtained:
ducksalad = assay: Test B flooded paddy test; format: in vivo, Heteranthera limosa; details: 500 g ai/ha, Flood; scale of 0 to 100 where 0 is no effect and 100 is complete control
Summary of the method: (§1)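 First, plants reach the 2-leaf stage; next, pots are flooded to 3 cm and compound is delivered into the water; finally, after 13 to 15 greenhouse days at constant depth, injury is graded visually from 0 to 100 against controls.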

barnyardgrass = assay: Test B flooded paddy test; format: in vivo, Echinochloa crus-galli; details: 500 g ai/ha, Flood; scale of 0 to 100 where 0 is no effect and 100 is complete control
Summary of the method: as §1

ragweed = assay: Test C pre-/postemergence herbicide test; format: in vivo, Ambrosia elatior
Summary of the method: (§2)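 Compound solutions contained surfactant in a non-phytotoxic solvent. These were sprayed onto pots of loam/sand sown with seeds, and onto young plants (2 to 18 cm, 1- to 4-leaf) in sphagnum peat–vermiculite mix. Visual injury scores (0 none, 100 complete control) were recorded after 13 to 15 days.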

waterhemp = assay: Test C pre-/postemergence herbicide test; format: in vivo, Amaranthus rudis
Summary of the method: as §2

pigweed = assay: Test C pre-/postemergence herbicide test; format: in vivo, Amaranthus retroflexus
Summary of the method: as §2

giant foxtail = assay: Test A pre-/postemergence herbicide test; format: in vivo, Setaria faberii; details: for Plant response rating, Foxtail, Giant: 0 to 100 scale
Summary of the method: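 Formulated compound (non-phytotoxic solvent, surfactant) sprayed pre- onto soil of seeded loam/sand pots or post- onto seedlings at 1–2 leaves; ~10 d greenhouse; 0–100 visual control rating versus untreated.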

nutsedge, yellow = assay: Test C pre-/postemergence herbicide test; format: in vivo, Cyperus esculentus
Summary of the method: as §2

oilseed rape = assay: Test C pre-/postemergence herbicide test; format: in vivo, Brassica napus
Summary of the method: as §2

oat, wild = assay: Test C pre-/postemergence herbicide test; format: in vivo, Avena fatua; details: Postemergence
Summary of the method: as §2

sedge, umbrella = assay: Test B flooded paddy test; format: in vivo, Cyperus difformis; details: 500 g ai/ha, Flood; scale of 0 to 100 where 0 is no effect and 100 is complete control
Summary of the method: as §1

blackgrass = assay: Test C pre-/postemergence herbicide test; format: in vivo, Alopecurus myosuroides; details: for Blackgrass plant response rating: scale 0 to 100, 0 is no effect and 100 is complete control
Summary of the method: as §2

rice = assay: Test B flooded paddy test; format: in vivo, Oryza sativa; details: 500 g ai/ha, Flood; scale of 0 to 100 where 0 is no effect and 100 is complete control
Summary of the method: as §1

velvetleaf = assay: Test C pre-/postemergence herbicide test; format: in vivo, Abutilon theophrasti
Summary of the method: as §2

[1] = Postemergence, 31 g ai/ha, scale 0 to 100 (0 no effect, 100 complete control)
[2] = Postemergence, 62 g ai/ha, scale 0 (no effect) to 100 (complete control)
[3] = Postemergence, 125 g ai/ha, scale 0 to 100 (0 no effect, 100 complete control)
[4] = Postemergence, 250 g ai/ha, scale 0 to 100 (0 no effect, 100 complete control)
[5] = Preemergence, 31 g ai/ha, scale 0 to 100, 0 is no effect and 100 is complete control
[6] = Preemergence, 62 g ai/ha, scale 0 to 100 (0 no effect, 100 complete control)
[7] = Preemergence, 125 g ai/ha, scale 0 to 100 (0 no effect, 100 complete control)
[8] = 125 g ai/ha, visual rating, 0 no effect, 100 complete control, approximately 10 days, preemergence
[9] = Postemergence, 125 g ai/ha, 0 is no effect, 100 is complete control
[10] = preemergence, 500 g ai/ha, 0 is no effect and 100 is complete control
[11] = 31 g ai/ha, scale 0 to 100 (0 no effect, 100 complete control)
[12] = 62 g ai/ha, scale 0 (no effect) to 100 (complete control)
[13] = 125 g ai/ha, scale 0 to 100 (0 no effect, 100 complete control)
[14] = 250 g ai/ha, scale 0 to 100 (0 no effect, 100 complete control)
[15] = Preemergence, 62 g ai/ha, scale 0 to 100

## O=C1NCC(c2cccc(OC(F)F)c2)C1C(=O)Nc1ccccc1F (stereo not shown) [Compound 223]
ducksalad
  Plant response rating, Ducksalad: 100
barnyardgrass
  Plant response rating, Barnyardgrass: 75
ragweed; [1]
  Plant response rating, Ragweed: 0
ragweed; [2]
  Plant response rating, Ragweed: 0
ragweed; [3]
  Plant response rating, Ragweed: 35
ragweed; [4]
  Plant response rating, Ragweed: 35
ragweed; [5]
  Ragweed plant response rating: 0
ragweed; [6]
  Ragweed plant response rating: 0
ragweed; [7]
  Plant response rating, Ragweed: 10
ragweed; Preemergence, 250 g ai/ha
  Plant response rating (scale of 0 to 100), Ragweed: 25
waterhemp; [1]
  Plant response rating, Waterhemp: 0
waterhemp; [2]
  Plant response rating, Waterhemp: 0
waterhemp; [3]
  Plant response rating, Waterhemp: 10
waterhemp; [4]
  Plant response rating, Waterhemp: 10
waterhemp; [5]
  Waterhemp plant response rating: 90
waterhemp; [6]
  Waterhemp plant response rating: 0
waterhemp; [7]
  Plant response rating, Waterhemp: 0
waterhemp; Preemergence, 250 g ai/ha
  Plant response rating (scale of 0 to 100), Waterhemp: 25
pigweed; [1]
  Plant response rating, Pigweed: 5
pigweed; [2]
  Plant response rating, Pigweed: 10
pigweed; [3]
  Plant response rating, Pigweed: 10
pigweed; [4]
  Plant response rating, Pigweed: 60
pigweed; [5]
  Pigweed plant response rating: 20
pigweed; [6]
  Pigweed plant response rating: 5
pigweed; [7]
  Plant response rating, Pigweed: 20
pigweed; Preemergence, 250 g ai/ha
  Plant response rating (scale of 0 to 100), Pigweed: 30
Giant foxtail; [8]
  Plant response rating, Foxtail, Giant: 90
Giant foxtail; [9]
  Plant response rating, Foxtail, Giant: 80
Giant foxtail; Postemergence, 500 g ai/ha
  Foxtail, Giant plant response rating (0 to 100 scale, 0 is no effect, 100 is complete control): 90
Giant foxtail; [10]
  Plant response rating, Foxtail, Giant: 90
nutsedge, yellow; [1]
  Plant response rating, Nutsedge, Yellow: 0
nutsedge, yellow; [2]
  Plant response rating, Nutsedge, Yellow: 0
nutsedge, yellow; [3]
  Plant response rating, Nutsedge, Yellow: 0
nutsedge, yellow; [4]
  Plant response rating, Nutsedge, Yellow: 0
nutsedge, yellow; [5]
  Nutsedge, Yellow plant response rating: 100
nutsedge, yellow; [6]
  Nutsedge, Yellow plant response rating: 0
nutsedge, yellow; [7]
  Plant response rating, Nutsedge, Yellow: 0
nutsedge, yellow; Preemergence, 250 g ai/ha
  Plant response rating (scale of 0 to 100), Nutsedge, Yellow: 0
Oilseed rape; [1]
  Plant response rating, Oilseed Rape: 0
Oilseed rape; [2]
  Plant response rating, Oilseed Rape: 0
Oilseed rape; [3]
  Plant response rating, Oilseed Rape: 0
Oilseed rape; [4]
  Plant response rating, Oilseed Rape: 10
Oilseed rape; [5]
  Oilseed Rape plant response rating: 0
Oilseed rape; [6]
  Oilseed Rape plant response rating: 0
Oilseed rape; [7]
  Plant response rating, Oilseed Rape: 0
Oilseed rape; Preemergence, 250 g ai/ha
  Plant response rating (scale of 0 to 100), Oilseed Rape: 5
oat, wild; [11]
  Plant response rating, Oat, Wild: 0
oat, wild; [12]
  Plant response rating, Oat, Wild: 0
oat, wild; [13]
  Plant response rating, Oat, Wild: 0
oat, wild; [14]
  Plant response rating, Oat, Wild: 0
sedge, umbrella
  Plant response rating, Sedge, Umbrella: 0
blackgrass; [1]
  Plant response rating, Blackgrass: 0
blackgrass; [2]
  Plant response rating, Blackgrass: 0
blackgrass; [3]
  Plant response rating, Blackgrass: 0
blackgrass; [4]
  Plant response rating, Blackgrass: 0
blackgrass; Preemergence, 31 g ai/ha
  Blackgrass plant response rating: 35
blackgrass; [15]
  Plant response rating, Blackgrass: 35
blackgrass; [7]
  Plant response rating, Blackgrass: 85
blackgrass; Preemergence, 250 g ai/ha
  Plant response rating (scale of 0 to 100), Blackgrass: 85
rice
  Plant response rating, Rice: 0
velvetleaf; [1]
  Plant response rating, Velvetleaf: 0
velvetleaf; [2]
  Plant response rating, Velvetleaf: 0
velvetleaf; [3]
  Plant response rating, Velvetleaf: 0
velvetleaf; [4]
  Plant response rating, Velvetleaf: 20
velvetleaf; [5]
  Velvetleaf plant response rating: 0
velvetleaf; [6]
  Velvetleaf plant response rating: 0
velvetleaf; [7]
  Plant response rating, Velvetleaf: 25
velvetleaf; Preemergence, 250 g ai/ha
  Plant response rating (scale of 0 to 100), Velvetleaf: 35

## O=C1NCC(c2ccc(C(F)(F)F)cc2)C1C(=O)Nc1ccc(F)c(F)c1F (stereo not shown) [Compound 232]
ducksalad
  Plant response rating, Ducksalad: 100
barnyardgrass
  Plant response rating, Barnyardgrass: 85
ragweed; [1]
  Plant response rating, Ragweed: 75
ragweed; [2]
  Plant response rating, Ragweed: 80
ragweed; [3]
  Plant response rating, Ragweed: 85
ragweed; [4]
  Plant response rating, Ragweed: 75
ragweed; [5]
  Ragweed plant response rating: 65
ragweed; [6]
  Ragweed plant response rating: 85
ragweed; [7]
  Plant response rating, Ragweed: 85
ragweed; Preemergence, 250 g ai/ha
  Plant response rating (scale of 0 to 100), Ragweed: 90
waterhemp; [1]
  Plant response rating, Waterhemp: 75
waterhemp; [2]
  Plant response rating, Waterhemp: 75
waterhemp; [3]
  Plant response rating, Waterhemp: 80
waterhemp; [4]
  Plant response rating, Waterhemp: 80
waterhemp; [5]
  Waterhemp plant response rating: 85
waterhemp; [6]
  Waterhemp plant response rating: 90
waterhemp; [7]
  Plant response rating, Waterhemp: 90
waterhemp; Preemergence, 250 g ai/ha
  Plant response rating (scale of 0 to 100), Waterhemp: 95
pigweed; [1]
  Plant response rating, Pigweed: 80
pigweed; [2]
  Plant response rating, Pigweed: 85
pigweed; [3]
  Plant response rating, Pigweed: 85
pigweed; [4]
  Plant response rating, Pigweed: 85
pigweed; [5]
  Pigweed plant response rating: 85
pigweed; [6]
  Pigweed plant response rating: 85
pigweed; [7]
  Plant response rating, Pigweed: 85
pigweed; Preemergence, 250 g ai/ha
  Plant response rating (scale of 0 to 100), Pigweed: 95
Giant foxtail; [8]
  Plant response rating, Foxtail, Giant: 90
Giant foxtail; [9]
  Plant response rating, Foxtail, Giant: 90
Giant foxtail; Postemergence, 500 g ai/ha
  Foxtail, Giant plant response rating (0 to 100 scale, 0 is no effect, 100 is complete control): 90
Giant foxtail; [10]
  Plant response rating, Foxtail, Giant: 90
nutsedge, yellow; [1]
  Plant response rating, Nutsedge, Yellow: 0
nutsedge, yellow; [2]
  Plant response rating, Nutsedge, Yellow: 0
nutsedge, yellow; [3]
  Plant response rating, Nutsedge, Yellow: 5
nutsedge, yellow; [4]
  Plant response rating, Nutsedge, Yellow: 5
nutsedge, yellow; [5]
  Nutsedge, Yellow plant response rating: 0
nutsedge, yellow; [6]
  Nutsedge, Yellow plant response rating: 0
nutsedge, yellow; [7]
  Plant response rating, Nutsedge, Yellow: 0
nutsedge, yellow; Preemergence, 250 g ai/ha
  Plant response rating (scale of 0 to 100), Nutsedge, Yellow: 100
Oilseed rape; [1]
  Plant response rating, Oilseed Rape: 0
Oilseed rape; [2]
  Plant response rating, Oilseed Rape: 50
Oilseed rape; [3]
  Plant response rating, Oilseed Rape: 65
Oilseed rape; [4]
  Plant response rating, Oilseed Rape: 40
Oilseed rape; [5]
  Oilseed Rape plant response rating: 30
Oilseed rape; [6]
  Oilseed Rape plant response rating: 30
Oilseed rape; [7]
  Plant response rating, Oilseed Rape: 50
Oilseed rape; Preemergence, 250 g ai/ha
  Plant response rating (scale of 0 to 100), Oilseed Rape: 85
oat, wild; [11]
  Plant response rating, Oat, Wild: 0
oat, wild; [12]
  Plant response rating, Oat, Wild: 0
oat, wild; [13]
  Plant response rating, Oat, Wild: 0
oat, wild; [14]
  Plant response rating, Oat, Wild: 30
sedge, umbrella
  Plant response rating, Sedge, Umbrella: 0
blackgrass; [1]
  Plant response rating, Blackgrass: 0
blackgrass; [2]
  Plant response rating, Blackgrass: 0
blackgrass; [3]
  Plant response rating, Blackgrass: 0
blackgrass; [4]
  Plant response rating, Blackgrass: 0
blackgrass; Preemergence, 31 g ai/ha
  Blackgrass plant response rating: 60
blackgrass; [15]
  Plant response rating, Blackgrass: 70
blackgrass; [7]
  Plant response rating, Blackgrass: 70
blackgrass; Preemergence, 250 g ai/ha
  Plant response rating (scale of 0 to 100), Blackgrass: 85
rice
  Plant response rating, Rice: 20
velvetleaf; [1]
  Plant response rating, Velvetleaf: 5
velvetleaf; [2]
  Plant response rating, Velvetleaf: 15
velvetleaf; [3]
  Plant response rating, Velvetleaf: 30
velvetleaf; [4]
  Plant response rating, Velvetleaf: 60
velvetleaf; [5]
  Velvetleaf plant response rating: 25
velvetleaf; [6]
  Velvetleaf plant response rating: 40
velvetleaf; [7]
  Plant response rating, Velvetleaf: 65
velvetleaf; Preemergence, 250 g ai/ha
  Plant response rating (scale of 0 to 100), Velvetleaf: 75
